Results published in ChEMBL document CHEMBL3112450, “Synthesis and in vitro antitumor evaluation of primary amine substituted quinazoline linked benzimidazole” (Bioorg Med Chem Lett, 2014).

What was measured:
UACC-62 = test: Cytotoxicity against human UACC62 cells after 48 hrs by SRB assay; format: functional; details: UACC-62, 48 h
RXF 393 = test: Cytotoxicity against human RXF393 cells assessed as cell growth at 10^-4 M after 48 hrs by SRB assay; format: functional; details: RXF 393, 48 h, read-out: Activity
SK-MEL-5 = test: Cytotoxicity against human SK-MEL-5 cells assessed as cell growth at 10^-7 M after 48 hrs by SRB assay; format: functional; details: SK-MEL-5, 48 h, read-out: Activity
ACHN [1] = test: Cytotoxicity against human ACHN cells assessed as cell growth at 10^-8 M after 48 hrs by SRB assay; format: functional; details: read-out: Activity
A549 = test: Cytotoxicity against human A549 cells assessed as cell growth at 10^-6 M after 48 hrs by SRB assay; format: functional; details: A549, 48 h, read-out: Activity
[2] = Cytotoxicity against human NCI-ADR-RES cells assessed as cell growth at 10^-6 M after 48 hrs by SRB assay; format: functional; details: read-out: Activity
SNB-75 = test: Cytotoxicity against human SNB75 cells after 48 hrs by SRB assay; format: functional, cell-based; details: SNB-75, 48 h
SNB-19 [3] = test: Cytotoxicity against human SNB19 cells assessed as cell growth at 10^-4 M after 48 hrs by SRB assay; format: functional; details: SNB-19, 48 h, read-out: Activity
SNB-19 [4] = test: Cytotoxicity against human SNB19 cells assessed as cell growth at 10^-8 M after 48 hrs by SRB assay; format: functional; details: SNB-19, 48 h, read-out: Activity
BT-549 = test: Cytotoxicity against human BT549 cells assessed as growth inhibition at 10 uM after 48 hrs by SRB assay; format: functional; details: BT-549, 48 h, read-out: GI
HCT-116 = test: Cytotoxicity against human HCT116 cells assessed as growth inhibition at 10 uM after 48 hrs by SRB assay; format: functional; details: HCT-116, 48 h, read-out: GI
M14 = test: Cytotoxicity against human M14 cells assessed as cell growth at 10^-6 M after 48 hrs by SRB assay; format: functional; details: M14, 48 h, read-out: Activity
ACHN [5] = test: Cytotoxicity against human ACHN cells after 48 hrs by SRB assay; format: functional
SF-539 = test: Cytotoxicity against human SF539 cells assessed as cell growth at 10^-4 M after 48 hrs by SRB assay; format: functional; details: SF-539, 48 h, read-out: Activity
PC-3 [6] = test: Cytotoxicity against human PC3 cells after 48 hrs by SRB assay; format: functional; details: PC-3, 48 h
HL-60(TB) = test: Cytotoxicity against human HL-60(TB) cells assessed as cell growth at 10^-6 M after 48 hrs by SRB assay; format: functional; details: HL-60, 48 h, read-out: Activity
MCF7 = test: Cytotoxicity against human MCF7 cells assessed as cell growth at 10^-4 M after 48 hrs by SRB assay; format: functional; details: MCF7, 48 h, read-out: Activity
K562 = test: Cytotoxicity against human K562 cells assessed as cell growth at 10^-8 M after 48 hrs by SRB assay; format: functional; details: K562, 48 h, read-out: Activity
PC-3 [7] = test: Cytotoxicity against human PC3 cells assessed as cell growth at 10^-6 M after 48 hrs by SRB assay; format: functional; details: PC-3, 48 h, read-out: Activity
[8] = Cytotoxicity against human OVCAR4 cells assessed as growth inhibition at 10 uM after 48 hrs by SRB assay; format: functional; details: OVCAR-4, 48 h, read-out: GI
NCI-H322M = test: Cytotoxicity against human NCI-H322M cells assessed as cell growth at 10^-4 M after 48 hrs by SRB assay; format: functional; details: read-out: Activity
NCI-H522 [9] = test: Cytotoxicity against human NCI-H522 cells assessed as cell growth at 10^-6 M after 48 hrs by SRB assay; format: functional; details: NCI-H522, 48 h, read-out: Activity
NCI-H226 = test: Cytotoxicity against human NCI-H226 cells after 48 hrs by SRB assay; format: functional; details: NCI-H226, 48 h
SR [10] = test: Cytotoxicity against human SR cells assessed as cell growth at 10^-7 M after 48 hrs by SRB assay; format: functional; details: read-out: Activity
A498 [11] = test: Cytotoxicity against human A498 cells assessed as cell growth at 10^-6 M after 48 hrs by SRB assay; format: functional; details: A498, 48 h, read-out: Activity
SR [12] = test: Cytotoxicity against human SR cells assessed as cell growth at 10^-8 M after 48 hrs by SRB assay; format: functional; details: read-out: Activity
A498 [13] = test: Cytotoxicity against human A498 cells assessed as cell growth at 10^-7 M after 48 hrs by SRB assay; format: functional; details: A498, 48 h, read-out: Activity
CAKI-1 = test: Cytotoxicity against human Caki1 cells assessed as cell growth at 10^-8 M after 48 hrs by SRB assay; format: functional; details: CAKI-1, 48 h, read-out: Activity
ACHN [14] = test: Cytotoxicity against human ACHN cells assessed as cell growth at 10^-6 M after 48 hrs by SRB assay; format: functional; details: read-out: Activity
SN12C [15] = test: Cytotoxicity against human SN12C cells assessed as cell growth at 10^-4 M after 48 hrs by SRB assay; format: functional; details: read-out: Activity
[16] = Cytotoxicity against human NCI-ADR-RES cells assessed as growth inhibition at 10 uM after 48 hrs by SRB assay; format: functional; details: read-out: GI
NCI-H522 [17] = test: Cytotoxicity against human NCI-H522 cells after 48 hrs by SRB assay; format: functional; details: NCI-H522, 48 h
PC-3 [18] = test: Cytotoxicity against human PC3 cells assessed as cell growth at 10^-7 M after 48 hrs by SRB assay; format: functional; details: PC-3, 48 h, read-out: Activity
SN12C [19] = test: Cytotoxicity against human SN12C cells assessed as cell growth at 10^-8 M after 48 hrs by SRB assay; format: functional; details: read-out: Activity
SK-MEL-28 = test: Cytotoxicity against human SK-MEL-28 cells after 48 hrs by SRB assay; format: functional; details: SK-MEL-28, 48 h
PC-3 [20] = test: Cytotoxicity against human PC3 cells assessed as cell growth at 10^-8 M after 48 hrs by SRB assay; format: functional; details: PC-3, 48 h, read-out: Activity
HOP-62 = test: Cytotoxicity against human HOP62 cells assessed as cell growth at 10^-7 M after 48 hrs by SRB assay; format: functional; details: HOP-62, 48 h, read-out: Activity
[21] = Cytotoxicity against human UACC257 cells assessed as cell growth at 10^-7 M after 48 hrs by SRB assay; format: functional; details: UACC-257, 48 h, read-out: Activity
NCI-H23 = test: Cytotoxicity against human NCI-H23 cells assessed as cell growth at 10^-8 M after 48 hrs by SRB assay; format: functional; details: NCI-H23, 48 h, read-out: Activity
RPMI-8226 = test: Cytotoxicity against human RPMI8226 cells assessed as growth inhibition at 10 uM after 48 hrs by SRB assay; format: functional; details: RPMI-8226, 48 h, read-out: GI
[22] = read-out: LC50 (the source's name)

C=CCn1c(C)nc2ccc(Nc3nc(Nc4ccc(F)cc4)nc4ccccc34)cc21
GI50 (UACC-62): 1800 nM
TGI (UACC-62): 3.7 µM
CC50 (UACC-62; [22]): 7.59 µM
growth at 100 µM (RXF 393): -56%
growth at 0.1 µM (SK-MEL-5): 93%
growth at 0.01 µM (ACHN [1]): 98%
growth at 1 µM (A549): 89%
growth at 1 µM [2]: 96%
GI50 (SNB-75): 1510 nM
IC50 (SNB-75): 7.5 µM
TGI (SNB-75): 3.37 µM
growth at 100 µM (SNB-19 [3]): -80%
growth at 0.01 µM (SNB-19 [4]): 95%
inhibition of growth at 10 µM (BT-549): 40%
inhibition of growth at 10 µM (HCT-116): 70%
growth at 1 µM (M14): 94%
GI50 (ACHN [5]): 1990 nM
LC50 (ACHN [5]): 9.33 µM
TGI (ACHN [5]): 4.31 µM
growth at 100 µM (SF-539): -92%
GI50 (PC-3 [6]): 3.14 µM
TGI (PC-3 [6]): 14.7 µM
CC50 (PC-3 [6]; [22]): 49.7 µM
growth at 1 µM (HL-60(TB)): 104%
growth at 100 µM (MCF7): -37%
growth at 0.01 µM (K562): 102%
growth at 1 µM (PC-3 [7]): 84%
inhibition of growth at 10 µM [8]: 50%
growth at 100 µM (NCI-H322M): -82%
growth at 1 µM (NCI-H522 [9]): 91%
GI50 (NCI-H226): 1780 nM
TGI (NCI-H226): 3.85 µM
growth at 0.1 µM (SR [10]): 98%
growth at 1 µM (A498 [11]): 65%
growth at 0.01 µM (SR [12]): 98%
growth at 0.1 µM (A498 [13]): 83%
growth at 0.01 µM (CAKI-1): 100%
growth at 1 µM (ACHN [14]): 94%
growth at 100 µM (SN12C [15]): -49%
inhibition of growth at 10 µM [16]: 50%
GI50 (NCI-H522 [17]): 3.12 µM
TGI (NCI-H522 [17]): 13.4 µM
CC50 (NCI-H522 [17]; [22]): 75.5 µM
growth at 0.1 µM (PC-3 [18]): 92%
growth at 0.01 µM (SN12C [19]): 93%
GI50 (SK-MEL-28): 1650 nM
LC50 (SK-MEL-28): 5.94 µM
TGI (SK-MEL-28): 3.13 µM
growth at 0.01 µM (PC-3 [20]): 98%
growth at 0.1 µM (HOP-62): 100%
growth at 0.1 µM [21]: 98%
growth at 0.01 µM (NCI-H23): 94%

C=CCn1c(C)nc2cc(Nc3nc(NCCO)nc4ccccc34)ccc21
inhibition of growth at 10 µM (HCT-116): 30%
inhibition of growth at 10 µM [8]: 30%
inhibition of growth at 10 µM (RPMI-8226): 30%

C=CCn1c(C)nc2ccc(Nc3nc(Sc4ccc(N)cc4)nc4ccccc34)cc21
inhibition of growth at 10 µM (RPMI-8226): 40%
